Reference: patent US10525186B2 (Fresenius Medical Care Holdings, Inc., priority 2009, dated 2020)

Assay: Hemodialysis treatments with trisodium citrate infusion into the arterial line and Citrasate dialysate; measured ionized calcium
Type: in vivo, maintenance HD patients
Conditions: 15 min into the treatment, mean±SD
Procedure: For one treatment only, Citrasate with 2.5 mEq/L Ca was used. No post-dialyzer Ca infusion was performed. Total Ca, Ca^++ and total Ci were measured systemically, pre- and post-dialyzer at the following time points: before HD (systemically only), at several time points throughout the treatment, and at the end of HD. […] Total protein and albumin were measured before dialysis. The most recent alkaline phosphatase (AP) and total parathyroid hormone (PTH) (Scantibodies assay, Scantibodies Laboratory, Inc., Santee, Calif.) were recorded. […] All subjects used Optiflux F180NR dialyzers (Fresenius Medical Care North America, Waltham, Mass.).
Measured and predicted systemic Ca^++ were compared pre-HD and at 15 min into the treatment. For the latter, pre-HD predicted were adjusted to measured values. Pre- and post-dialyzer comparisons between measured and estimated Ca^++ were performed at 15 min into the treatment. Deviations between predicted and measured systemic Ca^++ over the entire treatment were compared for tertiles of AP and tPTH.
Results are presented below as mean±standard deviation (SD) unless otherwise noted. Differences between predicted and measured values were calculated as predicted minus measured and were tested for significant deviation from zero by means of two-tailed one-sample t test. Bland-Altman plots were generated and the underlying data analyzed for systematic bias by means of linear regression. Statistical significance was accepted for an alpha level of <0.05.

[1] = Citrasate dialysate, no post-dialyzer Ca infusion

## O=C([O-])CC(O)(CC(=O)[O-])C(=O)[O-].[Na+].[Na+].[Na+] [Trisodium citrate]
[1]
  Measured post-dialyzer Ca: 0.7 ± 0.05 mmol/L
  Measured systemic Ca++: 1.01 ± 0.05 mmol/L
After citrate infusion
  Measured pre-dialyzer Ca: 0.33 ± 0.06 mmol/L
